Values of other authors, collected in patent publication US20240180165A1, “ACTIVATION OF BIONEMATICIDE AND PLANT GROWTH PROMOTING FUNCTIONS IN A BIOTECHNOLOGICAL SOLUTION COMPRISING TWO OR MORE BACILLUS SPECIES AND ALLICIN; INDUSTRIAL PROCESS AND APPLICATION THEREOF” (TOTAL BIOTECNOLOGIA INDÚSTRIA E COMÉRICO S/A, priority 2021, published 2024).

Test system: Gram-negative and Gram-positive bacteria, including the Bacillus genus
Settings: even at low concentrations (UM)

C=CCS[S+]([O-])CC=C (stereo not shown) [allicin]
antimicrobial activity: broad antimicrobial activity
